The target in test [1] is human CXCR3A (Homo sapiens (Human), UniProt P49682). Kind of test: FLIPR assay. The format is cell-based. The settings on record: CHO-K1 cells expressing the human CXCR3A coupled to Galpha(16); CXCL10 agonist 20 nM; Fluo-4-AM fluorescence; mean values if determined several times. The gist of the method:
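CHO-K1 cells expressing CXCR3A coupled to Gα16 were loaded with Fluo-4-AM for 1 h in Hepes-buffered HBSS, pH 7.4, with 5 mM probenecid. Compound dilutions were added on the FLIPR, followed by CXCL10 (added as a 20 nM solution). Baseline-subtracted peak fluorescence was fitted to a single-site curve for IC50.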

Test [2] deals with CXCR3 (Homo sapiens (Human), UniProt P49682). Kind of test: Receptor internalization assay. The format is cell-based. The following applies: human whole blood; final CXCL10 concentration 9 nM; 30 min 37° C.; CXCR3 cell surface expression on CD3 positive cells, flow cytometer; read-out: Internalization IC50. Here is the method: B): Receptor Internalization Assay:
Stock solutions of test compounds are made up at a concentration of 10 mM in DMSO, and serially diluted in PBS containing 0.5% BSA to concentrations required for inhibition dose response curves. Diluted compounds are then mixed with an equal volume of CXCL10 (Peprotech) diluted in PBS. Anticoagulated venous human whole blood is added to the mixture, which is then incubated in a CO2 incubator at 37° C. to allow for ligand mediated receptor internalization (final CXCL10 concentration is 9 nM). After 30′, the blood is mixed with fluorescently labeled CXCR3 and CD3 specific antibodies (Becton Dickinson) and incubated on ice for 10 minutes. Samples are then mixed with BD FACS Lysing Solution (Becton Dickinson) in order to eliminate red blood cells. After washing the cells with PBS containing 0.5% BSA, the samples are then analyzed in a flow cytometer (FACS Canto II, Becton Dickinson). For data analysis using FACSDiva software (Becton Dickinson), the mean fluorescence corresponding to CXCR3 cell surface expression was determined on CD3 positive cells. The program GraphPad Prism is used to fit the data to a single site dose response curve and to calculate IC50 values.

CXCR3, sequence (P49682 whole entry): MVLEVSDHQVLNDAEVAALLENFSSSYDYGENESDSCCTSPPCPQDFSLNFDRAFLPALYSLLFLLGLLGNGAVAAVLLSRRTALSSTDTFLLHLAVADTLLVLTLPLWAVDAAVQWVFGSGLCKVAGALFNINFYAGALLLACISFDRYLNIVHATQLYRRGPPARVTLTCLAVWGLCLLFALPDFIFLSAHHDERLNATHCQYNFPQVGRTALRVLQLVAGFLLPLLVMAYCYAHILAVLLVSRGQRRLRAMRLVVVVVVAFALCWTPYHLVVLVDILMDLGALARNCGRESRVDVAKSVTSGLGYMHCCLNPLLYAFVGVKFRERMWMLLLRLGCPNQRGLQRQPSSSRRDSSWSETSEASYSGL
human CXCR3A, sequence (P49682 whole entry): as above

In the case of `O=C(CN1C(=O)CCc2ccccc21)N1CCN(c2scnc2-c2nc3ccccc3[nH]2)CC1` [Example 77, 1-(2-{4-[4-(1H-Benzoimidazol-2-yl)-thiazol-5-yl]-piperazin-1-yl}-2-oxo-ethyl)-3,4-dihydro-1H-quinolin-2-one], the results for the 50% inhibitory concentration (IC50) in test [1] and in test [2] were 6 nM and 1440 nM, respectively.
`O=C(CN1C(=O)COc2ccccc21)N1CCN(c2scnc2-c2nc3ccccc3[nH]2)CC1` [Example 78, 4-(2-{4-[4-(1H-Benzoimidazol-2-yl)-thiazol-5-yl]-piperazin-1-yl}-2-oxo-ethyl)-4H-benzo[1,4]oxazin-3-one]: the 50% inhibitory concentration (IC50) in test [1] is 11 nM; in test [2], 3120 nM.
The matching figures for `O=C(Cn1cnc2cccnc21)N1[C@@H]2CC[C@H]1CN(c1scnc1-c1nc3ccccc3[nH]1)C2` [Example 79, rac-1-{(1S*,5R*)-3-[4-(1H-Benzoimidazol-2-yl)-thiazol-5-yl]-3,8-diaza-bicyclo[3.2.1]oct-8-yl}-2-imidazo[4,5-b]pyridin-3-yl-ethanone]: 6 nM and 828 nM.
For the compound `C[C@@H]1CN(c2sc(Br)nc2-c2nc3ccccc3[nH]2)CCN1C(=O)Cn1cnc2cccnc21` [Example 80, 1-{(R)-4-[4-(1H-Benzoimidazol-2-yl)-2-bromo-thiazol-5-yl]-2-methyl-piperazin-1-yl}-2-imidazo[4,5-b]pyridin-3-yl-ethanone], the concentration for half-maximal inhibition (IC50) in test [1] is 1 nM; in test [2], 459 nM.
In the case of `C[C@@H]1CN(c2scnc2-c2nc3ccc(Cl)cc3[nH]2)CCN1C(=O)Cn1cnc2cccnc21` [Example 83, 1-{(R)-4-[4-(6-Chloro-1H-benzoimidazol-2-yl)-thiazol-5-yl]-2-methyl-piperazin-1-yl}-2-imidazo[4,5-b]pyridin-3-yl-ethanone], the IC50 came out at 1 nM in test [1] and 340 nM in test [2].
In the case of `C[C@@H]1CN(c2scnc2-c2nc3cc(Cl)ccc3[nH]2)CCN1C(=O)Cn1c(=O)oc2ccccc21` [Example 84, 3-(2-{(R)-4-[4-(5-Chloro-1H-benzoimidazol-2-yl)-thiazol-5-yl]-2-methyl-piperazin-1-yl}-2-oxo-ethyl)-3H-benzooxazol-2-one], the values for the IC50 in test [1] and in test [2] were 1 nM and 517 nM, respectively.
On to `Cc1ccc2[nH]c(-c3ncsc3N3CCN(C(=O)Cn4cnc5cccnc54)[C@H](C)C3)nc2c1` [Example 85, 2-Imidazo[4,5-b]pyridin-3-yl-1-{(R)-2-methyl-4-[4-(5-methyl-1H-benzoimidazol-2-yl)-thiazol-5-yl]-piperazin-1-yl}-ethanone], for which the half-maximal inhibitory concentration (IC50) was 1 nM in test [1] and 499 nM in test [2].
In the case of `Cc1cc2[nH]c(-c3ncsc3N3CCN(C(=O)Cn4cnc5cccnc54)[C@H](C)C3)nc2cc1Cl` [Example 87, 1-{(R)-4-[4-(5-Chloro-6-methyl-1H-benzoimidazol-2-yl)-thiazol-5-yl]-2-methyl-piperazin-1-yl}-2-imidazo[4,5-b]pyridin-3-yl-ethanone], the figures for the half-maximal inhibitory concentration (IC50) in test [1] and in test [2] were 1 nM and 205 nM, respectively.
The matching figures for `CC(C)c1ccc2nc(-c3ncsc3N3CCN(C(=O)Cn4cnc5cccnc54)[C@H](C)C3)[nH]c2c1` [Example 88, 2-Imidazo[4,5-b]pyridin-3-yl-1-{(R)-4-[4-(6-isopropyl-1H-benzoimidazol-2-yl)-thiazol-5-yl]-2-methyl-piperazin-1-yl}-ethanone]: 1 nM and 126 nM.
For the compound `C[C@@H]1CN(c2scnc2-c2nc3cc(F)c(F)cc3[nH]2)CCN1C(=O)Cn1cnc2cccnc21` [Example 91, 1-{(R)-4-[4-(5,6-Difluoro-1H-benzoimidazol-2-yl)-thiazol-5-yl]-2-methyl-piperazin-1-yl}-2-imidazo[4,5-b]pyridin-3-yl-ethanone], the values for the IC50 in test [1] and in test [2] were 0.4 nM and 895 nM, respectively.
As to `C[C@@H]1CN(c2scnc2-c2nc3cc(C(F)(F)F)ccc3[nH]2)CCN1C(=O)Cn1cnc2cccnc21` [Example 92, 2-Imidazo[4,5-b]pyridin-3-yl-1-{(R)-2-methyl-4-[4-(5-trifluoromethyl-1H-benzoimidazol-2-yl)-thiazol-5-yl]-piperazin-1-yl}-ethanone], the IC50 was determined as 1 nM in test [1] and 317 nM in test [2].
The matching figures for `C[C@@H]1CN(c2scnc2-c2nc3cc(F)ccc3[nH]2)CCN1C(=O)Cn1cnc2cccnc21` [Example 96, 1-{(R)-4-[4-(5-Fluoro-1H-benzoimidazol-2-yl)-thiazol-5-yl]-2-methyl-piperazin-1-yl}-2-imidazo[4,5-b]pyridin-3-yl-ethanone]: 0.5 nM and 566 nM.
Take `CCc1ccc2nc(-c3ncsc3N3CCN(C(=O)Cn4cnc5cccnc54)[C@H](C)C3)[nH]c2c1` [Example 99, 1-{(R)-4-[4-(6-Ethyl-1H-benzoimidazol-2-yl)-thiazol-5-yl]-2-methyl-piperazin-1-yl}-2-imidazo[4,5-b]pyridin-3-yl-ethanone]: the 50% inhibitory concentration (IC50) in test [1] was determined as 1 nM; in test [2] it was 221 nM.
The corresponding values for `C[C@@H]1CN(c2scnc2-c2nc3ccc(-c4ccccc4)cc3[nH]2)CCN1C(=O)Cn1cnc2cccnc21` [Example 100, 2-Imidazo[4,5-b]pyridin-3-yl-1-{(R)-2-methyl-4-[4-(6-phenyl-1H-benzoimidazol-2-yl)-thiazol-5-yl]-piperazin-1-yl}-ethanone] are 1 nM and 747 nM.
With `C[C@@H]1CN(c2sc(C(F)(F)F)nc2-c2nc3ccccc3[nH]2)CCN1C(=O)CN1C(=O)Cc2ccccc21` [Example 103, 1-(2-{(R)-4-[4-(1H-Benzoimidazol-2-yl)-2-trifluoromethyl-thiazol-5-yl]-2-methyl-piperazin-1-yl}-2-oxo-ethyl)-1,3-dihydro-indol-2-one], the 50% inhibitory concentration (IC50) stood at 1 nM in test [1] and 81 nM in test [2].
The matching figures for `C[C@@H]1CN(c2sc(C(F)(F)F)nc2-c2nc3ccccc3[nH]2)CCN1C(=O)Cn1c(=O)[nH]c2cccnc21` [Example 104, 3-(2-{(R)-4-[4-(1H-Benzoimidazol-2-yl)-2-trifluoromethyl-thiazol-5-yl]-2-methyl-piperazin-1-yl}-2-oxo-ethyl)-1,3-dihydro-imidazo[4,5-b]pyridin-2-one]: 1 nM and 119 nM.
The corresponding values for `O=C(Cn1ncc2ccccc21)N1CCN(c2scnc2-c2nc3ccccc3[nH]2)CC1` [Example 109, 1-{4-[4-(1H-Benzoimidazol-2-yl)-thiazol-5-yl]-piperazin-1-yl}-2-indazol-1-yl-ethanone] are 16 nM and 1970 nM.
With `C[C@@H]1CN(c2sc(C3COC3)nc2-c2nc3ccccc3[nH]2)CCN1C(=O)Cn1cnc2cccnc21` [Example 113, 1-{(R)-4-[4-(1H-Benzoimidazol-2-yl)-2-oxetan-3-yl-thiazol-5-yl]-2-methyl-piperazin-1-yl}-2-imidazo[4,5-b]pyridin-3-yl-ethanone], the 50% inhibitory concentration (IC50) was found to be 9 nM in test [1] and 1510 nM in test [2].
As to `C[C@@H]1CN(c2scnc2-c2nc3ccccc3[nH]2)CCN1C(=O)Cn1ncc2cccnc21` [Example 115, 1-{(R)-4-[4-(1H-Benzoimidazol-2-yl)-thiazol-5-yl]-2-methyl-piperazin-1-yl}-2-pyrazolo[3,4-b]pyridin-1-yl-ethanone], the IC50 is 1 nM in test [1] and 809 nM in test [2].

Values taken from patent US9266876B2 (Actelion Pharmaceuticals Ltd., priority 2012, dated 2016).
